Assay results published in paper PMC5696490, “Modelling foetal exposure to maternal smoking using hepatoblasts from pluripotent stem cells” (Archives of Toxicology, 2017).

What was measured:
Caspase 3/7 [1] = experiment: Caspase 3/7 activity (pGlo) in donor one hESC-derived hepatocytes; format: cell-based, human; conditions: concentration of peak caspase 3/7 activity, 8 days exposure
Protocol: (§1) H9 and Man12 human embryonic stem cells (hESCs) identity was confirmed using short tandem repeat typing. hESCs were cultured and differentiated as previously described (Cameron et al. [2015]). Maintenance of hESCs was performed on pre-coated laminin 521 (Biolaminin) in mTeSR1 ([…] Technologies) in a humidified 37 °C, 5% CO2 incubator. For differentiation, hESCs were plated onto a pre-coated blend of laminins 521 and 111 (at a 1:3 ratio). Differentiation was initiated at 40% confluence by replacing serum-free medium with endoderm differentiation medium: RPMI 1640 containing 1× B27 (Life Technologies), 100 ng/mL Activin A (PeproTech), and 50 ng/mL Wnt3a (R&D Systems). The medium was changed every 24 h for 72 h. On day 3, endoderm differentiation medium was replaced with hepatoblast differentiation medium, and this was renewed every second day for a further 5 days. The medium consisted of knockout (KO)-DMEM (Life Technologies), Serum replacement (Life Technologies), 0.5% Glutamax (Life Technologies), 1% non-essential amino acids (Life Technologies), 0.2% β-mercaptoethanol (Life Technologies), and 1% DMSO (Sigma). On day 8, differentiating cells were cultured in the hepatocyte maturation medium HepatoZYME (Life Technologies) containing 1% Glutamax (Life Technologies), supplemented with 10 ng/mL hepatocyte growth factor (PeproTech) and 20 ng/mL oncostatin M (PeproTech). On day 10 maturation medium was replaced with HepatoZYME supplemented with and without smoking derivatives (Sigma-Aldrich) for a further 8 days, with media replaced every 48 h.
(§2) Cell health was assessed measuring ATP production and Caspase 3/7 activity at Day 18 employing pGlo technology (Promega) in accordance with the manufacturer’s instructions. Levels of expression of both markers were expressed as percentage of relative light units (RLUs) per milliliter of medium and normalised to the vehicle control. Levels of significance were measured by Student’s t test. The experiments are representative of five biological replicates.
(§3) Hepatocyte specification and maturation was performed in male and female hESCs lines in the presence or absence to smoking components. Cotinine at a concentration range of 1 to 300 nM, chrysene at a concentration range of 10 nM to 50 μM, fluorene at a concentration range of 10 nM to 100 μM, naphthalene at a concentration range of 10nm to 1 mM and phenanthrene, at a concentration range of 10 nM to 500 μM were used. Following 8 days exposure, cell health was determined by ATP production and caspase activity. Following this cell function was determined measuring CYP P450 3A and 1A2 activity. In order to measure the effectiveness of each component of cigarette smoke to inhibiting activity we used the half maximal inhibitory concentration (IC50).

Caspase 3/7 [2] = experiment: Caspase 3/7 activity (pGlo) in donor two hESC-derived hepatocytes; format: cell-based, human; conditions: concentration of peak caspase 3/7 activity, 8 days exposure
Protocol: as §1, §2, §3

CYP3A = CYP3A activity (pGlo) in donor two hESC-derived hepatocytes; conditions: human two
Protocol: as §1
CYP3A and CYP1A2 activity was measured in hepatocytes at Day 18 using pGlo technology (Promega) in accordance with the manufacturer’s instructions. CYP activity was expressed as either relative light units (RLUs) per milliliter of medium per milligram of protein (determined by the BCA assay, Pierce), or as a percentage of CYP activity normalised to the vehicle control. Levels of significance were measured by Student’s t test. The experiments are representative of five biological replicates.
as §3

CYP1A2 = target: T1, CYP1A2 (Homo sapiens, UniProt P05177); experiment: CYP1A2 activity (pGlo) in donor one hESC-derived hepatocytes; format: cell-based; conditions: female hepatocytes, 8 days exposure
T1 sequence (P05177 2-516): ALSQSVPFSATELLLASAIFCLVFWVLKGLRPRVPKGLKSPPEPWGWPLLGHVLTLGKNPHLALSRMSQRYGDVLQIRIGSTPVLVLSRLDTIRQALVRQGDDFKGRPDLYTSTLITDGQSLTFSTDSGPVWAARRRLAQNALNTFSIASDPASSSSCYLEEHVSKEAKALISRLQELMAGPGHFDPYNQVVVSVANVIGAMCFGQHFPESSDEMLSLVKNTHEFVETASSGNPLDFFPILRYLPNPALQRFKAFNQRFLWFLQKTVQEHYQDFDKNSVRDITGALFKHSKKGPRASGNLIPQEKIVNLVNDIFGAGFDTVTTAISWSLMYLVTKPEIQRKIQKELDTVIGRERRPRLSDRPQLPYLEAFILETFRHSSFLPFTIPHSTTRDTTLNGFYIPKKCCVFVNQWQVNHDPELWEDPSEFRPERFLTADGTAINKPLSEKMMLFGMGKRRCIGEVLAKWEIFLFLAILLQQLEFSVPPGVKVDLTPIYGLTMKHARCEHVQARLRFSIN
Text: The experiments are representative of five biological replicates.

Structure (SMILES)	Caspase 3/7 peak activity Female (Caspase 3/7 [1])	Caspase 3/7 peak activity Male (Caspase 3/7 [2])	IC50 at 8 days (CYP3A)	IC50 CYP1A2 person one (CYP1A2)	IC50 CYP1A2 person one (CYP1A2; listed as naphthalene)
c1ccc2c(c1)ccc1ccccc12 [Phenanthrene]	>500 µM	10 µM	58 µM		
CN1C(=O)CC[C@H]1c1cccnc1 [Cotinine]	0.1 µM	0.1 µM	0.05 µM		
c1ccc2ccccc2c1 [Naphthalene]	50 µM	1000 µM	68 µM	Induced activity	induced CYP1A2 activity
c1ccc2c(c1)ccc1c3ccccc3ccc21 [Chrysene]	25 µM	5 µM	10 µM		
c1ccc2c(c1)Cc1ccccc1-2 [Fluorene]	>100 µM	100 µM	25 µM		
